Data published in patent US10669284B2, “Fused thiazolopyrimidine derivatives as MNKS inhibitors” (LIFEARC, priority 2015, dated 2020).

Tests used:
Full-length human MNK1 = target: T1, Full-length human MNK1 (Homo sapiens, UniProt Q9BUB5, T385D); test: MNK1 biochemical IC50 assay (Caliper Mobility Shift Assay); details: read-out: P(IC50) MNK1 (converted)
T1 construct: GST (N); purchased Carna Biosciences 02-145; host or cells: baculovirus expression system

Full-length human MNK2 = target: T2, Full-length human MNK2 (Homo sapiens, UniProt Q9HBH9, T379D); test: MNK2 biochemical IC50 assay (Caliper Mobility Shift Assay); details: read-out: P(IC50) MNK2 (converted)
T2 construct: GST (N); purchased Carna Biosciences 02-146; host or cells: baculovirus expression system
T2 sequence (Q9HBH9 whole entry T379D): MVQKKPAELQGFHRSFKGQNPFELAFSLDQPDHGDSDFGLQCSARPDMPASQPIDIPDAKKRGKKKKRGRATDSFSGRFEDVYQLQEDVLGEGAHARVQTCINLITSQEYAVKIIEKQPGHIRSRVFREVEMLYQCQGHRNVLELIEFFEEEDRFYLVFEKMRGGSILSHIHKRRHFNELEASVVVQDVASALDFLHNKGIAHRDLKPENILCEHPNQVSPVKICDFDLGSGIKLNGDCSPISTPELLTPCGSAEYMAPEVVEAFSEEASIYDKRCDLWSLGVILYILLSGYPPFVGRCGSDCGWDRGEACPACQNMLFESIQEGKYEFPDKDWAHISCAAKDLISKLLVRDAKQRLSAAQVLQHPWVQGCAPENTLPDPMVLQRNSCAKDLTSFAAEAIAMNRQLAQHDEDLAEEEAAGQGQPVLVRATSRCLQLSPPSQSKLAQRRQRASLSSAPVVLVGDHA

[1] = tested on: phosphorylation of eIF4E at ser209 in MV4.11 cell line; test: MNK cellular activity phospho-eIF4E detection assay (Alphascreen Surefire); format: cell-based; details: Homo sapiens; MV4.11 cell line, phospho-eIF4E (ser209) Alphascreen Surefire; read-out: P(IC50) elF4E (converted)
How it was run: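 AlphaScreen SureFire sandwich-immunoassay readout of phospho-eIF4E Ser209 in lysed MV4.11 cells; acceptor then donor beads, each 1.5 hr at room temperature. Signal normalised to untreated DMSO-only controls; duplicate curves, values averaged over at least 2 independent experiments.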

T1 sequence (Q9BUB5 1-424 isoform Q9BUB5-2 T344D): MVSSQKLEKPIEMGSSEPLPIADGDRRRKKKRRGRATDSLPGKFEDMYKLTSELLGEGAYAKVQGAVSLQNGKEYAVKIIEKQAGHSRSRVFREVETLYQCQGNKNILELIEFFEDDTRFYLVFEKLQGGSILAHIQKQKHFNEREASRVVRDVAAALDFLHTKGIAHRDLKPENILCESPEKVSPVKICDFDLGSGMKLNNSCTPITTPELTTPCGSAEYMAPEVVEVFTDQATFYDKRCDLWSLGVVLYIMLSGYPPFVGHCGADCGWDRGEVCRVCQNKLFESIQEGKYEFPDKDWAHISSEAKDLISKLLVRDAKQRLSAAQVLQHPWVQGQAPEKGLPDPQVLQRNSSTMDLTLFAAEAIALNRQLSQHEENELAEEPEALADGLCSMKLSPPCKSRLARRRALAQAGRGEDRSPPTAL

SMILES	IC50 (Full-length human MNK1)	IC50 (Full-length human MNK2)	IC50 [1]
NCC1CN(c2ncnc3sc(C(=O)NC4CCOCC4)nc23)c2ccccc21 (stereo not drawn) [Example 119, 7-[3-(Aminomethyl)indolin-1-yl]-N-tetrahydropyran-4-yl-thiazolo[5,4-d]pyrimidine-2-carboxamide]	12.6 nM	15.8 nM	20 nM
O=C(Nc1nc2c(N3CCc4cc(F)ccc43)ncnc2s1)C1CCOC1 (stereo not drawn) [Example 84, N-(7-(5-Fluoroindolin-1-yl)thiazolo[5,4-d]pyrimidin-2-yl)tetrahydrofuran-3-carboxamide]	3.98 nM	5.01 nM	50.1 nM
O=C(NCC1CCNCC1)c1nc2c(N3CCc4cc(Br)ccc43)ncnc2s1 [Example 169, 7-(5-Bromoindolin-1-yl)-N-(4-piperidylmethyl)thiazolo[5,4-d]pyrimidine-2-carboxamide]	7.94 nM	7.94 nM	31.6 nM
CO[C@@H]1CCC[C@H](Oc2cc(F)ccc2Nc2ncnc3sc(C(=O)NCC4CCNCC4)nc23)C1 [Example 61, 7-[4-fluoro-2-[(1S,3R)-3-methoxycyclohexoxy]anilino]-N-(4-piperidylmethyl)thiazolo[5,4-d]pyrimidine-2-carboxamide]	100 nM	126 nM	79.4 nM
CN(C)C(=O)c1nc2c(N3CCc4cc(F)ccc43)ncnc2s1 [Example 70, 7-(5-fluoroindolin-1-yl)-N,N-dimethyl-thiazolo[5,4-d]pyrimidine-2-carboxamide]	50.1 nM	20 nM	63.1 nM
CO[C@H]1CCC[C@@H](Oc2cc(F)ccc2Nc2ncnc3sc(C(=O)NCC4CCNCC4)nc23)C1 [Example 60, 7-[4-fluoro-2-[(1R,3S)-3-methoxycyclohexoxy]anilino]-N-(4-piperidylmethyl)thiazolo[5,4-d]pyrimidine-2-carboxamide]	794 nM	1000 nM	631 nM
CNCCNC(=O)c1nc2c(Nc3ccc(F)cc3OC(C)C)ncnc2s1 [Example 30, 7-{[4-Fluoro-2-(propan-2-yloxy)phenyl]amino}-N-[2-(methylamino)ethyl][1,3]thiazolo[5,4-d]pyrimidine-2-carboxamide]	200 nM	126 nM	100 nM
CC(C)Oc1c(F)cccc1Nc1ncnc2sc(C(=O)NCCCN(C)C)nc12 [Example 18, N-[3-(dimethylamino)propyl]-7-(3-fluoro-2-isopropoxy-anilino)thiazolo[5,4-d]pyrimidine-2-carboxamide]	50.1 nM	50.1 nM	39.8 nM
CNCCCNC(=O)c1nc2c(N3CCc4ccccc43)ncnc2s1 [Example 97, 7-indolin-1-yl-N-[3-(methylamino)propyl] thiazolo[5,4-d]pyrimidine-2-carboxamide]	7.94 nM	7.94 nM	15.8 nM
O=C(NCCN1CCNCC1)c1nc2c(N3CCc4cc(F)ccc43)ncnc2s1 [Example 79, 7-(5-fluoroindolin-1-yl)-N-(2-piperazin-1-ylethyl)thiazolo[5,4-d]pyrimidine-2-carboxamide]	3.16 nM	3.16 nM	10 nM
CNC(=O)c1nc2c(N3CC(CCO)c4ccccc43)ncnc2s1 (stereo not drawn) [Example 157]	31.6 nM	20 nM	10 nM
CC1(C)CN(c2ncnc3sc(C(=O)NCCCN4CCCC4)nc23)c2ccccc21 [Example 160]	6.31 nM	6.31 nM	7.94 nM
NCCC1CN(c2ncnc3sc(C(=O)NC4CC4)nc23)c2ccccc21 (stereo not drawn) [Example 164, 7-(3-(2-Aminoethyl)indolin-1-yl)-N-cyclo-propylthiazolo[5,4-d]pyrimidine-2-carboxamide]	5.01 nM	5.01 nM	5.01 nM
CC(C)Oc1cc(F)ccc1Nc1ncnc2sc(C(=O)NCC3CCOCC3)nc12 [Example 38, 7-{[4-fluoro-2-(propan-2-yloxy)phenyl]amino}-N-(tetrahydro-2H-pyran-4-ylmethyl)[1,3]thiazolo[5,4-d]pyrimidine-2-carboxamide]	100 nM	63.1 nM	79.4 nM
O=C(NCC1CCNCC1)c1nc2c(N3CCc4cc(C(F)(F)F)ccc43)ncnc2s1 [Example 145]	126 nM	100 nM	501 nM
O=C(NCC1CCNCC1)c1nc2c(N3CC(CCO)c4cc(F)ccc43)ncnc2s1 (stereo not drawn) [Example 139]	2.51 nM	3.16 nM	31.6 nM

Continued, values first:

IC50 (Full-length human MNK1)	IC50 (Full-length human MNK2)	IC50 [1]	SMILES
100 nM	79.4 nM	79.4 nM	CC(C)Oc1cc(F)ccc1Nc1ncnc2sc(C(=O)NC3CCOCC3)nc12 [Example 33, 7-{[4-fluoro-2-(propan-2-yloxy)phenyl]amino}-N-(tetrahydro-2H-pyran-4-yl)[1,3]thiazolo[5,4-d]pyrimidine-2-carboxamide]
158 nM	100 nM	100 nM	O=C(NC1CCOCC1)c1nc2c(N3CCc4ncccc43)ncnc2s1 [Example 44, 7-(2,3-Dihydro-1H-pyrrolo[3,2-b]pyridin-1-yl)-N-(tetrahydro-2H-pyran-4-yl)[1,3]thiazolo[5,4-d]pyrimidine-2-carboxamide]
10 nM	6.31 nM	15.8 nM	CNCCNC(=O)c1nc2c(N3CCc4cc(F)ccc43)ncnc2s1 [Example 71, 7-(5-fluoroindolin-1-yl)-N-[2-(methylamino)ethyl]thiazolo[5,4-d]pyrimidine-2-carboxamide]
794 nM	794 nM	251 nM	CN(C)CCCNC(=O)c1nc2c(Nc3ccc(F)cc3O[C@H]3CCCC[C@@H]3O)ncnc2s1 [Example 19, N-[3-(dimethylamino)propyl]-7-[4-fluoro-2-[(1S,2S)-2-hydroxycyclohexoxy]anilino]thiazolo[5,4-d]pyrimidine-2-carboxamide]
39.8 nM	39.8 nM	39.8 nM	CC1(CCO)CN(c2ncnc3sc(C(=O)NC4CCOCC4)nc23)c2ccccc21 (stereo not drawn) [Example 113, 7-[3-(2-hydroxyethyl)-3-methyl-indolin-1-yl]-N-tetrahydropyran-4-yl-thiazolo[5,4-d]pyrimidine-2-carboxamide]
6.31 nM	3.98 nM	7.94 nM	O=C(NCC1CCNCC1)c1nc2c(N3CCc4ccccc43)ncnc2s1 [Example 94, 7-Indolin-1-yl-N-(4-piperidylmethyl)thiazolo[5,4-d]pyrimidine-2-carboxamide]
39.8 nM	79.4 nM	79.4 nM	CN(C)Cc1cn(-c2ncnc3sc(C(=O)NC4CCOCC4)nc23)c2ccccc12 [Example 121, 7-[3-[(dimethylamino)methyl]indol-1-yl]-N-tetrahydropyran-4-yl-thiazolo[5,4-d]pyrimidine-2-carboxamide]
126 nM	63.1 nM	50.1 nM	CC(C)Oc1cc(F)ccc1Nc1ncnc2sc(C(=O)NCC(O)CO)nc12 (stereo not drawn) [Example 12, N-(2,3-dihydroxypropyl)-7-(4-fluoro-2-isopropoxy-anilino)thiazolo[5,4-d]pyrimidine-2-carboxamide]
10 nM	10 nM	63.1 nM	O=C(NCC1CCOCC1)c1nc2c(N3CCc4ccccc43)ncnc2s1 [Example 103, 7-indolin-1-yl-N-(tetrahydropyran-4-ylmethyl)thiazoto[5,4-d]pyrimidine-2-carboxamide]
79.4 nM	63.1 nM	39.8 nM	COc1ccc2c(c1)CCN2c1ncnc2sc(C(=O)NCC3CCNCC3)nc12 [Example 63, 7-(5-methoxyindolin-1-yl)-N-(4-piperidylmethyl)thiazolo[5,4-d]pyrimidine-2-carboxamide]
10 nM	20 nM	100 nM	CN(C)CCCNc1nc2c(N3CCc4cc(F)ccc43)ncnc2s1 [Example 85, N1-(7-(5-fluoroindolin-1-yl)thiazolo[5,4-d]pyrimidin-2-yl)-N3,N3-dimethylpropane-1,3-diamine]
251 nM	251 nM	251 nM	CN1CCN(c2ncnc3sc(C(=O)NCC4CCNCC4)nc23)c2ccc(F)cc21 [Example 57, 7-(6-fluoro-4-methyl-2,3-dihydroquinoxalin-1-yl)-N-(4-piperidylmethyl)thiazolo[5,4-d]pyrimidine-2-carboxamide]
63.1 nM	39.8 nM	31.6 nM	O=C(NC1CCOCC1)c1nc2c(N3CC4(CCOCC4)c4ccccc43)ncnc2s1 [Example 108, 7-spiro[indoline-3,4′-tetrahydropyran]-1-yl-N-tetrahydropyran-4-yl-thiazolo[5,4-d]pyrimidine-2-carboxamide]
6.31 nM	5.01 nM	6.31 nM	CNC(=O)c1nc2c(N3CCc4cc(F)ccc43)ncnc2s1 [Example 69, 7-(5-fluoroindolin-1-yl)-N-methyl-thiazolo[5,4-d]pyrimidine-2-carboxamide]
100 nM	126 nM	126 nM	CCOc1cc(F)ccc1Nc1ncnc2sc(C(=O)NCC3CCNCC3)nc12 [Example 53, 7-(2-ethoxy-4-fluoro-anilino)-4-(4-piperidylmethyl)thiazolo[5,4-d]pyrimidine-2-carboxamide]
79.4 nM	79.4 nM	100 nM	O=C(NC1CCOCC1)c1nc2c(N3CC(CCN4CCOCC4)c4ccccc43)ncnc2s1 (stereo not drawn) [Example 154, 7-[3-(2-morpholinoethyl)indolin-1-yl]-N-tetrahydropyran-4-yl-thiazolo[5,4-d]pyrimidine-2-carboxamide]
3.16 nM	5.01 nM	20 nM	CC1(CO)CN(c2ncnc3sc(C(=O)NCC4CCNCC4)nc23)c2ccc(F)cc21 (stereo not drawn) [Example 141]
